Reference: ChEMBL document CHEMBL1147613, “A series of spirocyclic analogues as potent inhibitors of bacterial phenylalanyl-tRNA synthetases” (Bioorg Med Chem Lett, 2004)
pIC50: −log10 of the molar value.

What follows are molecules tested against T1, Phenylalanine--tRNA ligase, mitochondrial (Homo sapiens, UniProt O95363) (assay: Inhibitory activity against human phenylalanyl-tRNA synthetase was determined).
T1 sequence (O95363 whole entry): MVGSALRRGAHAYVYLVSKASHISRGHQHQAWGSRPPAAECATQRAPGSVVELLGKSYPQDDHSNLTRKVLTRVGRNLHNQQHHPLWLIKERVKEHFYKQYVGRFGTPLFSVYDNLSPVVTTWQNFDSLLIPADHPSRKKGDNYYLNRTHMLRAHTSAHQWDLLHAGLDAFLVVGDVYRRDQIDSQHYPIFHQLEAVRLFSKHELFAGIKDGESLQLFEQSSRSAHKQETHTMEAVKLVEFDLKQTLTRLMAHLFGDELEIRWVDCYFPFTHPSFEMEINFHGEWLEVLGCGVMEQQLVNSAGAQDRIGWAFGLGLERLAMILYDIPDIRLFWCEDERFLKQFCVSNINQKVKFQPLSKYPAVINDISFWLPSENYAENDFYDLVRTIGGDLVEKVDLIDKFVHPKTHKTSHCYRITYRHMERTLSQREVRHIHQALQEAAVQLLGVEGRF

pIC50, < 4.00:
O=C1[C@H]2[C@@H](C(=O)N1c1ccc(Cl)c(Cl)c1)C1(N[C@H]2c2ccccc2)C(=O)c2ccccc2C1=O
Cc1ccc(N2C(=O)[C@H]3[C@H](c4ccccc4)NC4(C(=O)c5ccccc5C4=O)[C@H]3C2=O)cc1Cl
Cc1ccc(N2C(=O)[C@H]3[C@@H](C2=O)C2(N[C@H]3c3ccccc3)C(=O)c3ccccc3C2=O)cc1Cl
COc1ccccc1N1C(=O)[C@@H]2C(c3ccccc3C)OC3(C(=O)c4ccccc4C3=O)[C@@H]2C1=O (some centres undefined)
Cc1ccc(N2C(=O)[C@H]3C(c4ccccc4)OC4(C(=O)c5ccccc5C4=O)[C@H]3C2=O)cc1Cl (some centres undefined)
COC(=O)C1N[C@@H](c2ccccc2)[C@H]2C(=O)N(c3ccc(Cl)c(Cl)c3)C(=O)[C@@H]12 (some centres undefined)
O=C1C2C(c3ccccc3)OC3(C(=O)c4ccccc4C3=O)C2C(=O)N1c1ccc2c(c1)OCO2 (centres undefined)
O=C1[C@H]2[C@H](c3ccccc3)NC3(Cc4ccccc4C3)[C@H]2C(=O)N1c1ccc(Cl)c(Cl)c1
O=C1[C@@H]2C(c3ccccc3)OC3(C(=O)c4ccccc4C3=O)[C@@H]2C(=O)N1c1ccc([N+](=O)[O-])cc1 (some centres undefined)
Cc1ccc(N2C(=O)[C@@H]3C(c4ccccc4)OC4(C(=O)c5ccccc5C4=O)[C@@H]3C2=O)cc1Cl (some centres undefined)
O=C1[C@H]2[C@H](c3ccccc3)NC3(C(=O)c4ccccc4C3=O)[C@H]2C(=O)N1c1ccc(Cl)c(Cl)c1
O=C1[C@@H]2C(c3ccc(Cl)cc3)OC3(C(=O)c4ccccc4C3=O)[C@@H]2C(=O)N1c1ccc(Cl)c(C(F)(F)F)c1 (some centres undefined)
O=C(c1ccccc1)C1N[C@@H](c2ccccc2)[C@H]2C(=O)N(c3ccc(Cl)c(Cl)c3)C(=O)[C@@H]12 (some centres undefined)
COc1ccc(N2C(=O)[C@@H]3C(c4ccccc4)OC4(C(=O)c5ccccc5C4=O)[C@@H]3C2=O)cc1 (some centres undefined)
O=C1[C@@H]2C(c3ccccc3)OC3(C(=O)c4ccccc4C3=O)[C@@H]2C(=O)N1c1ccc(Cl)c(C(F)(F)F)c1 (some centres undefined)
Cc1ccc(C2OC3(C(=O)c4ccccc4C3=O)[C@@H]3C(=O)N(c4ccc5c(c4)OCO5)C(=O)[C@H]23)cc1 (some centres undefined)
COc1ccccc1N1C(=O)C2C(c3ccccc3)OC3(C(=O)c4ccccc4C3=O)C2C1=O (centres undefined)
O=C1[C@H]2[C@@H](C(=O)N1c1ccc(Cl)c(Cl)c1)C1(Cc3ccccc3C1)N[C@H]2c1ccccc1
O=C(c1ccccc1)C1N[C@@H](c2ccccc2)[C@@H]2C(=O)N(c3ccc(Cl)c(Cl)c3)C(=O)[C@H]12 (some centres undefined)
